Assay results taken from patent US6958318B2, “Recombinant bacterial cells for delivery of PNP to tumor cells” (The UAB Research Foundation, priority 1993, dated 2005).
Where “and” joins values, the source holds several entries; their conditions need not be identical. Equal entries are not always repeated. Entries after “also recorded” stand apart in the source; their conditions may differ. Where two headings read alike, the source gives them in different places.

Legend:
[1] = Stability under tissue culture conditions (HPLC of supernatants); settings: HPLC analysis of supernatants
[2] = test system: D54 parental tumor cells (D54-wt); assay: Wild-type D54 glioma tumors in nude mice; type: in vivo
Protocol: Female athymic nude mice (nu/nu) were implanted sc with 2×10^7 cells of either D54 parental tumor cells (D54-wt) or D54 tumor cells that had been transduced with the E. coli PNP (D54-PNP). After the tumors had grown to approximately 150 mg, they were treated ip with either vehicle or 67 mg/kg of MeP-dR (IP) once a day for 3 days (days 6, 7 and 8 after implantation). The tumor sizes were measured twice a week after treatment.
A confirmation experiment was set up exactly as described above, except that animals were treated with two doses of MeP-dR (45 and 67 mg/kg) (FIGS. 10 and 11). The results of this experiment were similar (Table V). There were 8 of 10 complete regressions in mice bearing the D54-PNP tumors that were treated with 67 mg/kg of MeP-dR. In 4 mice the tumors subsequently returned and grew. There were still 4 of 10 tumor-free survivors 60 days after the treatment had stopped. […] There were 2 of 10 complete regressions and 3 partial responses. […] The delay in the time required to double twice due to treatment with MeP-dR was 5 to 6 days in the non-transduced tumors and greater than 24 days in transduced tumors. In this experiment, the growth rate of the D54-PNP tumors was considerably slower than it was in the first experiment. There was no change in the growth rate of the D54-wt tumors. The reason for the slow growth rate of the D54-PNP tumors in this experiment is not known. […] (In other words, if a tumor was too small to measure, it was not included in the average size). This means that the overall tumor regressions in the D54 PNP group are actually much more pronounced than they appear in FIGS. 8-11.

[3] = biological target: T1, E. coli PNP (Escherichia coli, UniProt P0ABP8); type: cell-based; settings: 160 μM, 5 day period, E. coli PNP transfected cells
T1 sequence (P0ABP8 2-239): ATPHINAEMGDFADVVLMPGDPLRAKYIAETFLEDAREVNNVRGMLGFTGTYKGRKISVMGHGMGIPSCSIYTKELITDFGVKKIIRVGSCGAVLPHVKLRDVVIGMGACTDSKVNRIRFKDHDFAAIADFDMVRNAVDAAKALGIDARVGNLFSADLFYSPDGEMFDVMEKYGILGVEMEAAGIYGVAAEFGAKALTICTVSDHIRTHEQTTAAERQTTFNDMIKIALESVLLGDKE

[4] = test system: D54 glioma tumors; assay: D54 tumors of mixed wild-type and transduced cells (80 to 20); settings: in vivo
[5] = test system: B16 melanoma cells; assay: Bystander killing, mixed wild type and PNP-transduced B16 cells; type: cell-based, murine; settings: 20 μg/ml
[6] = biological target: T1, E. coli PNP
[7] = test system: 16/C-PNP cells; assay: 16/C-PNP tumors in athymic nude mice
[8] = biological target: T1, E. coli PNP; type: biochemical
[9] = test system: T-84 colon carcinoma cells transfected with E. coli PNP; assay: Toxicity of MeP-dR in T-84 cells transfected with E. coli PNP; type: cell-based, human
Protocol: Cationic liposome mediated gene transfer was used to transfect T-84 colon carcinoma cells. Briefly, 6 μg of plasmid containing PNP or LacZ was added to 10 μg of a 1:1 molar mixture of DOTMA/DOPE (LipofectinJ (GIBCO/BRL, Gaithersburg, Md.)) in a final volume of 200 μl DMEM/FI2 serum free medium. After a 10 minute incubation at room temperature, the DNA-lipid mixture was added to 500 μl serum free medium and was used to cover the cells within a tray. Four hours later, transfection medium was removed from each well and 2 ml DMEM/FI2 with 10% fetal bovine serum was added.
Forty-eight hours following transfection, fresh medium was added and MeP-dR (1 mg/ml in PBS) was added directly to the cells to achieve the desired final concentrations. Cell viability was measured 5 days following treatment as described for the MeP-dR toxicity study.
After 5 days the cells were removed from each well and the number of dye excluding cells were determined with the aid of a hemacytometer. 30-50% toxicity due to the DOTMA-DOPE transfection protocol is acceptable for cationic liposome mediated gene transfer to T-84 in vitro when performed under optimal conditions.
In an additional experiment, approximately 2×10^5 cells per well were transfected as above using 6 μg of plasmid containing E. coli PNP cDNA. Two days after transfection, varying concentrations of MeP-dR (0, 2, 4, 20, 40 and 160 μM) were added to the wells, and after 5 days the dye excluding cells were counted with the aid of a hemacytometer.
An experiment was also performed in triplicate in which 2×10^5 cells per well were transfected with LacZ or PNP using the protocol described for transfection. Two days after transfection, 16 μM MeP-dR was added to one set of the cultures transfected with PNP and one set of the cultures transfected with LacZ.

[10] = Systemically administered dose response (toxicity) in mice; type: in vivo
Protocol: The formula of Freireich et al., Cancer Chemother. Rep., 50:219-244, (1966) can be used to determine the maximum tolerated dose of substrate for a human subject. […] This amount or slightly less should result in maximal effectiveness of tumor cell killing in humans without killing the subject. This standard of effectiveness is accepted in the field of cancer therapy. However, more preferred is a range of from about 10% to 1% of the maximum tolerated dosage (for example, 7.5 mg/m^2-0.75 mg/m^2). Furthermore, it is understood that modes of administration that permit the substrate to remain localized at or near the site of the tumor will be effective at lower doses than systemically administered substrates.

[11] = test system: Lewis Lung tumors; assay: Lewis Lung tumors treated with recombinant E. coli and MeP-dR
[12] = 67 mg/kg, IP Qd×3d plus recombinant E. coli

## Cc1ncnc2c1ncn2[C@H]1C[C@H](O)[C@@H](CO)O1 [MeP-dR, 9-(β-D-2-deoxyerythropentofuranosyl)-6-methylpurine]
[1]
  Stability under tissue culture conditions: stable
[2]; 45 or 67 mg/kg
  Effect on wild-type D54 tumors, in words: little effect; also recorded: no partial of complete remissions; also recorded: did not affect parental D54 tumor cell growth
[2]; Table IV, 67 mg/kg
  Days Delay (T-C): 7 days
  Doubling time: 21
  Nonspecific Deaths/Total: 1/6
  Regressions Partial: 0/6
  Tumor-free Survival: 0/6
[2]; Table IV, 67 mg/kg IP once a day for three days
  Regressions Complete: 0/6
[2]; Table V, 45 mg/kg
  Days Delay (T-C): 5 days
  Doubling time: 17
  Nonspecific Deaths/Total: 0/10
  Regressions Partial: 0/10
  Tumor-free Survival: 0/10
[2]; Table V, 45 mg/kg IP once a day for three days
  Regressions Complete: 0/10
[2]; Table V, 67 mg/kg
  Days Delay (T-C): 6 days
  Doubling time: 18
  Nonspecific Deaths/Total: 0/10
  Regressions Partial: 0/10
  Tumor-free Survival: 0/10
[2]; Table V, 67 mg/kg IP once a day for three days
  Regressions Complete: 0/10
[3]
  MeP-dR converted to MeP in culture medium: More than 75%
[4]
  Activity against tumors of wild-type and transduced cells at 80 to 20: less active
[5]
  Toxicity to untransduced B16 cells: not toxic
[5]; mixed culture
  Cell proliferation when as few as 2% of cells express E. coli PNP: completely eliminated cell proliferation; also recorded: Complete abrogation of cellular proliferation
[5]; LDH release assay
  Share of cells expressing PNP required for total population cell killing: 10%
[6]
  Km: 68 µM and 107 µM
[7]; 100 mg/kg IP days 1-4
  Tumor detection, early treatment group: none of the mice had any detectable tumor up to 18 days post engraftment
[7]; 100 mg/kg IP days 1-4, n=4
  Deaths, early treatment group: two more died at day 20
[7]; 100 mg/kg IP days 13, 14, 15
  Survival, late treatment group: All of these animals survived for the complete experiment
  Tumor size, late treatment group: did not increase in size after day 15
[7]; days 13-15 or days 1-4
  Antitumor effect of MeP-dR on PNP-transduced 16/C tumors: substantial antitumor effects
[8]; extracts of E. coli PNP transfected T-84 cells, 100 μM, 24 hours, 25° C.
  MeP-dR converted to MeP: Approximately 24%
[8]; extracts of LacZ transfected T-84 cells
  MeP-dR converted to MeP: no conversion occurred
[9]; 4 μM, 5 days, 6 μg PNP plasmid
  Inhibition of cell growth: greater than 80%
[9]; 16 μM
  Killing after PNP transfection: Substantial killing
[9]; 160 μM, 5 days
  Killing of cells transfected with E. coli PNP: killed virtually all of the cells
[10]; 25 mg per kg per day for 9 days
  Toxicity in mice: some toxicity but no lethality
[10]; 25 mg/kg×3
  Human dosage (maximum tolerated dose) by formula of Freireich: 75 mg/m^2
[11]; 33.5 mg/kg once a day for three days plus recombinant E. coli
  Delay of tumor growth: approximately 42%
[11]; 33.5 mg/kg plus recombinant E. coli
  Host toxicity: without host toxicity
[11]; [12]
  Anti-tumor effect: anti-tumor effects were again observed
  Host toxicity: toxic, with several deaths
